The values below are quoted from earlier work in publication PMC10686834, “Targeting myeloid chemotaxis to reverse prostate cancer therapy resistance” (Nature, 2023).

Each structure is given as a SMILES string.

On the set-up of the data set: method as in AZD5069 Investigator Brochure (IB). The note with it: in vitro and in vivo studies; ref AZD5069 Investigator Brochure (IB); cited from earlier work.

Turning to `C[C@@H](Oc1cc(NS(=O)(=O)N2CCC2)nc(SCc2cccc(F)c2F)n1)[C@@H](O)CO` [AZD5069], the genotoxicity entry is on record as “not genotoxic”.
